Measured values: patent US6458748B1, “Di- or tri-fluoromethanesulfonyl anilide derivatives, process for the preparation of them and herbicides containing them as the active ingredient” (Ihara Chemical Industry Co., Ltd., priority 1998, dated 2002)

Experiments:
[1] = system: Echindchloa oryzicola Vasing. (Ec); assay: Test 5 herbicidal effect by application stage; conditions: 28th day from application
Cyperus serotinus Rottb. = assay: Test 4 paddy pot herbicidal effect; conditions: applied next day, 28th day from application
[2] = system: Oryza sativa L. (paddy rice); assay: Test 4 injury to paddy rice; conditions: two-leaf stage seedlings, 28th day from application
Sagittaria pygmaea Miq. [3] = assay: Test 4 paddy pot herbicidal effect; conditions: applied next day, 28th day from application
[4] = system: Monochoria vaginalis (Burm. f.) Presl var. plantaginea (Roxb.) Solms-Laub.; assay: Test 2 paddy pot herbicidal effect with water drainage and feeding; assay type: in vivo; conditions: water drainage and feeding 2 cm per day for two days, 28th day
Description: (§1) Further, a tuber of Sagittaria pygmaea Miq. was buried. […] For two days starting from the next day, water drainage and feeding each of 2 cm in depth per day were conducted.

Sagittaria pygmaea Miq. [5] = assay: as above; assay type: in vivo; conditions: water drainage and feeding 2 cm per day for two days, 28th day
Description: as §1

[6] = system: Echinochloa oryzicola vasing.; assay: Test 1 paddy pot herbicidal effect, water surface application; assay type: in vivo; conditions: applied day after sowing, evaluated 28 days later
Text: (§2) Standard of herbicidal effect (level of suppression of development and growth) […] Herbicidal effect of 90% or more, injury to paddy rice […] Herbicidal effect of 70% or more to less than 90%, injury to paddy rice […] 2: […]

[7] = system: Monochoria vaginalis (Burm. f.) Presl var. plantaginea (Roxb.) Solms-Laub.; assay: as above; assay type: in vivo; conditions: applied day after sowing, evaluated 28 days later
Text: as §2

[8] = system: Echinochloa oryzicola vasing.; assay: Test 4 paddy pot herbicidal effect; conditions: applied next day, 28th day from application
[9] = system: Echinochloa oryzicola vasing.; assay: Test 3 herbicidal effect, application before germination or at 3-leaf stage; conditions: 28th day from application

COc1cc(OC)nc(C(O)c2ccccc2NS(=O)(=O)C(F)(F)F)n1 (stereo not drawn) [Comparative Compound, 2-[(4,6-dimethoxypyrimidine-2-yl)hydroxymethyl]-N-trifluoromethanes ulfonyl anilide, reference compound]
Herbicidal effect (Ec) Application stage 1-leaf ([1]; 1.3 g/10 ares): 0 (Herbicidal effect of less than 10%, injury to paddy rice)
Herbicidal effect (Ec) Application stage 2-leaf ([1]; 1.3 g/10 ares): 0 (Herbicidal effect of less than 10%, injury to paddy rice)
Herbicidal effect (Ec) Application stage 3-leaf ([1]; 1.3 g/10 ares): 0 (Herbicidal effect of less than 10%, injury to paddy rice)
Herbicidal effect (Ec) Application stage 1-leaf ([1]; 2.5 g/10 ares): 1 (Herbicidal effect of 10% or more to less than 30%, injury to paddy rice)
Herbicidal effect (Ec) Application stage 2-leaf ([1]; 2.5 g/10 ares): 0 (Herbicidal effect of less than 10%, injury to paddy rice)
Herbicidal effect (Ec) Application stage 3-leaf ([1]; 2.5 g/10 ares): 0 (Herbicidal effect of less than 10%, injury to paddy rice)
Herbicidal effect (Ec) Application stage 1-leaf ([1]; 5.0 g/10 ares): 3 (Herbicidal effect of 50% or more to less than 70%, injury to paddy rice)
Herbicidal effect (Ec) Application stage 2-leaf ([1]; 5.0 g/10 ares): 2 (Herbicidal effect of 30% or more to less than 50%, injury to paddy rice)
Herbicidal effect (Ec) Application stage 3-leaf ([1]; 5.0 g/10 ares): 2 (Herbicidal effect of 30% or more to less than 50%, injury to paddy rice)
Herbicidal effect Cy (Cyperus serotinus Rottb.; 0.6 g/10 ares): 5 (Herbicidal effect of 90% or more, injury to paddy rice)
Herbicidal effect Cy (Cyperus serotinus Rottb.; 1.3 g/10 ares): 5 (Herbicidal effect of 90% or more, injury to paddy rice)
Herbicidal effect Cy (Cyperus serotinus Rottb.; 2.5 g/10 ares): 5 (Herbicidal effect of 90% or more, injury to paddy rice)
Herbicidal effect Cy (Cyperus serotinus Rottb.; 5.0 g/10 ares): 5 (Herbicidal effect of 90% or more, injury to paddy rice)
Injury to rice Or ([2]; 0.6 g/10 ares): 0 (Herbicidal effect of less than 10%, injury to paddy rice)
Injury to rice Or ([2]; 1.3 g/10 ares): 0 (Herbicidal effect of less than 10%, injury to paddy rice)
Injury to rice Or ([2]; 2.5 g/10 ares): 0 (Herbicidal effect of less than 10%, injury to paddy rice)
Injury to rice Or ([2]; 5.0 g/10 ares): 1 (Herbicidal effect of 10% or more to less than 30%, injury to paddy rice)
Herbicidal effect Sa (Sagittaria pygmaea Miq. [3]; 0.6 g/10 ares): 5 (Herbicidal effect of 90% or more, injury to paddy rice)
Herbicidal effect Sa (Sagittaria pygmaea Miq. [3]; 1.3 g/10 ares): 5 (Herbicidal effect of 90% or more, injury to paddy rice)
Herbicidal effect Sa (Sagittaria pygmaea Miq. [3]; 2.5 g/10 ares): 5 (Herbicidal effect of 90% or more, injury to paddy rice)
Herbicidal effect Sa (Sagittaria pygmaea Miq. [3]; 5.0 g/10 ares): 5 (Herbicidal effect of 90% or more, injury to paddy rice)
Herbicidal effect Ec ([4]; 0.6 g/10 ares): 0 (Herbicidal effect of less than 10%, injury to paddy rice)
Herbicidal effect Ec ([4]; 1.3 g/10 ares): 1 (Herbicidal effect of 10% or more to less than 30%, injury to paddy rice)
Herbicidal effect Ec ([4]; 2.5 g/10 ares): 3 (Herbicidal effect of 50% or more to less than 70%, injury to paddy rice)
Herbicidal effect Ec ([4]; 5.0 g/10 ares): 5 (Herbicidal effect of 90% or more, injury to paddy rice)
Herbicidal effect Sc (Sagittaria pygmaea Miq. [5]; 0.6 g/10 ares): 0 (Herbicidal effect of less than 10%, injury to paddy rice)
Herbicidal effect Sc (Sagittaria pygmaea Miq. [5]; 1.3 g/10 ares): 2 (Herbicidal effect of 30% or more to less than 50%, injury to paddy rice)
Herbicidal effect Sc (Sagittaria pygmaea Miq. [5]; 2.5 g/10 ares): 4 (Herbicidal effect of 70% or more to less than 90%, injury to paddy rice)
Herbicidal effect Sc (Sagittaria pygmaea Miq. [5]; 5.0 g/10 ares): 5 (Herbicidal effect of 90% or more, injury to paddy rice)
Herbicidal effect Ec ([6]; 0.4 g/10 ares): 0 (Herbicidal effect of less than 10%, injury to paddy rice)
Herbicidal effect Ec ([6]; 1.6 g/10 ares): 1 (Herbicidal effect of 10% or more to less than 30%, injury to paddy rice)
Herbicidal effect Ec ([6]; 6.3 g/10 ares): 3 (Herbicidal effect of 50% or more to less than 70%, injury to paddy rice)
Herbicidal effect Ec ([6]; 25.0 g/10 ares): 4 (Herbicidal effect of 70% or more to less than 90%, injury to paddy rice)
Herbicidal effect Mo ([7]; 0.4 g/10 ares): 4 (Herbicidal effect of 70% or more to less than 90%, injury to paddy rice)
Herbicidal effect Mo ([7]; 1.6 g/10 ares): 5 (Herbicidal effect of 90% or more, injury to paddy rice)
Herbicidal effect Mo ([7]; 6.3 g/10 ares): 5 (Herbicidal effect of 90% or more, injury to paddy rice)
Herbicidal effect Mo ([7]; 25.0 g/10 ares): 5 (Herbicidal effect of 90% or more, injury to paddy rice)
Herbicidal effect Ec ([8]; 0.6 g/10 ares): 0 (Herbicidal effect of less than 10%, injury to paddy rice)
Herbicidal effect Ec ([8]; 1.3 g/10 ares): 1 (Herbicidal effect of 10% or more to less than 30%, injury to paddy rice)
Herbicidal effect Ec ([8]; 2.5 g/10 ares): 2 (Herbicidal effect of 30% or more to less than 50%, injury to paddy rice)
Herbicidal effect Ec ([8]; 5.0 g/10 ares): 4 (Herbicidal effect of 70% or more to less than 90%, injury to paddy rice)
Herbicidal effect (Ec) Application at 3-leaf stage ([9]; 0.3 g/10 ares): 0 (Herbicidal effect of less than 10%, injury to paddy rice)
Herbicidal effect (Ec) Application before germination ([9]; 0.3 g/10 ares): 0 (Herbicidal effect of less than 10%, injury to paddy rice)
Herbicidal effect (Ec) Application at 3-leaf stage ([9]; 0.6 g/10 ares): 0 (Herbicidal effect of less than 10%, injury to paddy rice)
Herbicidal effect (Ec) Application before germination ([9]; 0.6 g/10 ares): 0 (Herbicidal effect of less than 10%, injury to paddy rice)
Herbicidal effect (Ec) Application at 3-leaf stage ([9]; 1.3 g/10 ares): 0 (Herbicidal effect of less than 10%, injury to paddy rice)
Herbicidal effect (Ec) Application before germination ([9]; 1.3 g/10 ares): 1 (Herbicidal effect of 10% or more to less than 30%, injury to paddy rice)
Herbicidal effect (Ec) Application at 3-leaf stage ([9]; 2.5 g/10 ares): 0 (Herbicidal effect of less than 10%, injury to paddy rice)
Herbicidal effect (Ec) Application before germination ([9]; 2.5 g/10 ares): 2 (Herbicidal effect of 30% or more to less than 50%, injury to paddy rice)
Herbicidal effect (Ec) Application at 3-leaf stage ([9]; 5.0 g/10 ares): 1 (Herbicidal effect of 10% or more to less than 30%, injury to paddy rice)
Herbicidal effect (Ec) Application before germination ([9]; 5.0 g/10 ares): 3 (Herbicidal effect of 50% or more to less than 70%, injury to paddy rice)
